Experiments:
A549 cells [1] = assay: CyQUANT Direct Cell Proliferation Assay, A549; type: cell-based, human; details: for percent live cells compared to vehicle treated: 48 hours, Ro5-3335 150 μM, Ro24-7429 50 μM-200 μM, Pirfenidone 500 μg/ml, Nintedanib 5 μM
Procedure: (§1) Human type II alveolar epithelial cells (A549) were a generous gift from Dr. Lagares (Mass General Hospital). Cells were maintained in low glucose-DMEM containing 10% FBS, 2 mM L-glutamine, 100 U/ml penicillin and 100 μg/ml streptomycin at 37° C. in a humidified 5% C02 atmosphere. Confluent cultures of cells were pretreated with Ro24-7429 for 24 hours followed by stimulation with 5 ng/ml of TGF-β1.
(§2) We tested the effect of RUNX1 inhibition on the proliferation of a human alveolar basal epithelial cell line (A549), primary human-derived pulmonary alveolar epithelial cells (HPAEpi), and in human-derived primary culture lung fibroblasts (HLF). For specific analyses we used escalating doses of Ro24-7429 (50-200 μM), Ro5-3335 (150 μM), pirfenidone (500 μg/ml) and nintedanib (5 μM), the latter two are currently approved drugs for IPF.

[2] = test system: bleomycin-induced inflammation; assay: Bleomycin-induced lung inflammation, infiltration of neutrophils and macrophages; type: in vivo, C57BL/6J mice; details: 1-week and 2-week time points
Procedure: (§3) Bleomycin sulphate (Sigma-Aldrich) was dissolved in sterile 0.9% saline and administered as a single dose of 0.05 units in a total volume of 50 μl in saline solution per animal intratracheally (IT). Control animals received 0.05 mL saline alone. A preventative regimen was chosen and each animal received either Ro24-7429 drug 70 mg/kg or vehicle every other day 7 days before the induction of the model and continued until the end of the experiment for 1 week or 2 weeks. All animals received intratracheal instillations of either bleomycin on day 0 as previously described (52-55). A separate experiment was performed with similar drug-vehicle treatments and IT saline instillation for controls. The surgeon performing IT instillations was masked to the identity of the treatment groups.
Paraffin embedded sections were processed for immunofluorescence using the following antibodies: anti-RUNX1 (1:100; LS-B13948; Lifespan Biosciences, Seattle, WA), anti-human a-SMA antibody (1:200; NB500-170; Novus Biologicals, Ontario, Canada), anti-Iba1 antibody (1:100; ab5076; Abcam, Cambridge, United Kingdom), anti-Ly6g antibody (1:100; ab25377; Abcam, Cambridge, United Kingdom), and Isolectin GS-IB4 Alexa Fluoro 594 Conjugate (1:250; 121413; Invitrogen, Carlsbad, CA). […]
We evaluated the potential effect of Ro24-7429 on bleomycin-induced inflammation 1 week and 2 weeks after lung injury (FIGS. 1I-J and 2).

[3] = test system: ACE2 protein in HPAEpi cells; assay: TGF-β1 and TNF-α induced ACE2 protein, Western blot, HPAEpi cells; type: cell-based, human; details: pretreatment
Procedure: (§4) Human Pulmonary Alveolar Epithelial cells (HPAEpiCs) were purchased from ScienCell (Carlsbad, CA, USA) and cultured in alveolar epithelial cell medium (ScienCell) supplemented with 2% fetal bovine serum (FBS), epithelial cell growth supplement, 100 U/mL penicillin G, and 100 µg/mL streptomycin. The cells were cultured and maintained in 6-well plates for experimental purposes.
(§5) Protein concentration was determined by Pierce Bicinchonic acid (BCA) protein assay kit (ThermoFisher; 23227) according to the manufacturer's instructions. 20 μg of total cell lysates were prepared in 4 μL 1M 1,4-dithiothreitol (DTT; Sigma Aldrich) and 10 μL Laemmli buffer (Boston Bioproducts) to a final volume of 40 μL and denatured 5 min at 90° C. Samples were separated electrophoretically for 1 h at 70 V using 4-20% pre-cast gradient gels (Mini-PROTEAN TGX, Bio-Rad) and SDS-Tris-Glycine buffer (Bio-rad). Proteins were transferred to 0.45 μm nitrocellulose membranes for 1 h at 70 V in ice cold […] Tris-Glycine buffer (Bio-rad). Membranes were blocked for 1 h with Odyssey Blocking Buffer (LI-COR Biosciences). […]
(§6) Additionally, we studied the effect of RUNX1 inhibition on the expression of ACE2 expression in TGF-β1 and TNF-α stimulated HPAEpi cells. […] FURIN protein levels were also observed to go down by 70% in the Ro24-7429 treated mice as evaluated by Western blot (FIGS. 4E-F).

FURIN mRNA in HMEC-Ls = assay: FURIN mRNA, qPCR, TNF-α-stimulated HMEC-Ls; type: cell-based, human; details: TNF-α 5 ng/ml
[4] = test system: RUNX1 and fibrosis markers in lung tissue; assay: Expression of RUNX1 and fibrosis markers in bleomycin-injured lung (Western blot, qRT-PCR, immunostaining); type: in vivo, C57BL/6J mice
Procedure: as §3
Paraffin embedded sections were processed for immunofluorescence using the following antibodies: anti-RUNX1 (1:100; LS-B13948; Lifespan Biosciences, Seattle, WA), anti-human a-SMA antibody (1:200; NB500-170; Novus Biologicals, Ontario, Canada), anti-Iba1 antibody (1:100; ab5076; Abcam, Cambridge, United Kingdom), anti-Ly6g antibody (1:100; ab25377; Abcam, Cambridge, United Kingdom), and Isolectin GS-IB4 Alexa Fluoro 594 Conjugate (1:250; 121413; Invitrogen, Carlsbad, CA). For heat-induced antigen retrieval the slides were boiled in 10 mM sodium citrate buffer (pH 6.0) and then maintained at a sub-boiling temperature (95-100° C.) for 20 minutes and subsequently cooled on the bench top for 30 minutes. Slides were washed with distilled water and permeabilized with 0.5% Triton X-100 in PBS for 5 minutes and blocked (10% goat serum in PBS) for 1 hour at RT. The primary antibody was prepared in antibody dilution buffer (5% goat serum) and samples were incubated overnight with the antibody solution at 4° C. Sections were washed with PBS and incubated with goat anti-rabbit Alexa Fluor 594 secondary antibody (1:500; A-11012; Invitrogen, Carlsbad, CA) for 2 hours at room temperature. Slides were mounted and visualized using Prolong Gold Antifade Reagent with DAPI (P36935, Invitrogen). Images were obtained using an EVOS FL automated stage live cell imaging system (Life Technologies, Cambridge, MA).
Protein concentration was determined by Pierce Bicinchonic acid (BCA) protein assay kit (ThermoFisher; 23227) according to the manufacturer's instructions. 20 μg of total cell lysates were prepared in 4 μL 1M 1,4-dithiothreitol (DTT; Sigma Aldrich) and 10 μL Laemmli buffer (Boston Bioproducts) to a final volume of 40 μL and denatured 5 min at 90° C. Samples were separated electrophoretically for 1 h at 70 V using 4-20% pre-cast gradient gels (Mini-PROTEAN TGX, Bio-Rad) and SDS-Tris-Glycine buffer (Bio-rad). Proteins were transferred to 0.45 μm nitrocellulose membranes for 1 h at 70 V in ice cold […] Tris-Glycine buffer (Bio-rad). Membranes were blocked for 1 h with Odyssey Blocking Buffer (LI-COR Biosciences). Then incubated with primary antibodies for 3 hours RT or overnight at 4 degrees Celsius and then washed 3× with TBS-T and incubated with secondary antibodies IRDye 800CW donkey anti-mouse for 1 hour and washed 3× with TBS-T.
Mice were treated as described previously before euthanasia. Lung samples were collected for qRT-PCR analysis and tissues lysed by homogenization. RNA was extracted using RNeasy Mini Kits (QIAGEN), as per the manufacturer's instructions for tissue samples. Transcription into complementary DNA and analysis were performed as stated previously. Primers for selected genes (Table 1) were purchased from Integrated DNA Technologies (Coralville, IA, USA).

[5] = test system: bleomycin-induced lung fibrosis; assay: Bleomycin-induced lung fibrosis model, H&E, Masson's trichrome, Ashcroft score; type: in vivo, C57BL/6J mice
Procedure: Animal procedures were approved by the Institutional Animal Care and Use Committee (IACUC) of Massachusetts Eye and Ear, and performed in accordance with the Association for Research in Vision and Ophthalmology Statement for the Use of Animals in Ophthalmic and Vision Research. C57BL/6J male and female mice of 6-8 weeks-old were purchased from Jackson Laboratories. For all procedures, mice were anesthetized by intraperitoneal injection of Ketamine/xylazine mixture (100/50 mg/Kg).
as §3
Lung samples were fixed in 10% neutral buffered formalin (Sigma, HT501128-4L), for 24 hours for histological analysis. Fixed lungs were paraffin embedded and sectioned (5 μm-thick) and stained with hematoxylin and eosin (H&E) to examine gross morphology and Masson's trichrome stain to visualize collagen deposition and examined by microscopy. Lung fibrosis was measured using quantitative histology using the Ashcroft method of analysis. All measurements were performed by two independent graders in a blinded fashion. Images were acquired with the Nikon Eclipse E800 microscope with an Olympus DP70 Camera. Adjacent 2× images of the lung were stitched together using Adobe Photoshop CS6.
Bleomycin triggers a strong inflammatory response in the lung at day 7 characterized by infiltration with neutrophils and macrophages, vascular leakage, and up-regulation of cytokines, chemokines and other inflammatory mediators. By day 14, bleomycin treated mice are expected to develop significant lung fibrosis including disruption of the normal lung architecture, thickening of the alveolar septa, and excessive extracellular matrix and collagen deposition around the alveolar structures. We examined the effects of escalating doses of Ro24-7429 (17.5, 35 and 70 mg/kg per day) on bleomycin-induced lung fibrosis by H&E and Masson's trichrome staining in mice at day 14 (FIG. 1A-B, FIG. 5A-B). These doses were estimated to be equivalent to those used in the Ro24-7429 human trial, 75, 150 or 300 mg per day, respectively (28).

N-Cadherin in A549 cells = assay: TGF-β1-induced N-Cadherin upregulation, Western blot, A549; type: cell-based, human; details: A549, 150 μM and 200 μM, 24 hours prior to TGF-β1 exposure
Procedure: as §1, §5
(§7) We evaluated the effect of RUNX1 inhibition on the expression of fibrosis markers induced by TGF-β1, a critical mediator of PF (30), in A549 cells at 24, 48 and 72 hours. […]

[6] = test system: human lung fibroblasts (HLF); assay: CyQUANT Direct Cell Proliferation Assay, HLF; type: cell-based; details: 72 hours
From the text: as §2, with “We conducted mechanistic studies in cell culture to examine the cellular and molecular mechanisms underlying the robust effects of RUNX1 inhibition in the protection against bleomycin-induced lung injury. We” for “We”

[7] = test system: ACE2 and FURIN in lung tissue; assay: ACE2 staining and FURIN protein in bleomycin-injured lung; type: in vivo, C57BL/6J mice
Procedure: as §3, with “groups. […]” for “groups.”
Protein concentration was determined by Pierce Bicinchonic acid (BCA) protein assay kit (ThermoFisher; 23227) according to the manufacturer's instructions. […]
as §6

RUNX1 mRNA in HMEC-Ls = assay: TNF-α-induced RUNX1 mRNA, qRT-PCR, HMEC-Ls; type: cell-based, human; details: 75 μM, TNF-α 5 ng/ml, 48 hours
[8] = test system: N-Cadherin in HPAEpi cells; assay: TGF-β1-induced N-Cadherin upregulation, Western blot, HPAEpi; type: cell-based, human; details: 150 μM and 200 μM, 24 hours prior to TGF-β1 exposure
Procedure: as §4, §5, §7

A549 cells [9] = assay: Lactate dehydrogenase (LDH) cell death assay, A549; type: cell-based; details: A549; Ro24-7429 50-200 μM, Ro5-3335 150 μM
Procedure: Human type II alveolar epithelial cells (A549) were a generous gift from Dr. Lagares (Mass General Hospital). Cells were maintained in low glucose-DMEM containing 10% FBS, 2 mM L-glutamine, 100 U/ml penicillin and 100 μg/ml streptomycin at 37° C. in a humidified 5% C02 atmosphere.
We tested the effect of RUNX1 inhibition on the proliferation of a human alveolar basal epithelial cell line (A549), primary human-derived pulmonary alveolar epithelial cells (HPAEpi), and in human-derived primary culture lung fibroblasts (HLF).

[10] = test system: human lung fibroblasts (HLF); assay: Lactate dehydrogenase (LDH) cell death assay, HLF; type: cell-based; details: Ro24-7429 50-200 μM, Ro5-3335 150 μM
From the text: as §2, with “We conducted mechanistic studies in cell culture to examine the cellular and molecular mechanisms underlying the robust effects of RUNX1 inhibition in the protection against bleomycin-induced lung injury. We” for “We”

[11] = test system: human immunodeficiency virus (HIV); details: patients infected with HIV; cited from earlier work
[12] = bleomycin mice, lung tissue, day 14

COC(=O)c1ccc2c(c1)NC(=O)/C2=C(\Nc1ccc(N(C)C(=O)CN2CCN(C)CC2)cc1)c1ccccc1 [nintedanib]
percent live cells compared to vehicle treated (A549 cells [1]): significant reduction

CNC1=Nc2ccc(Cl)cc2C(c2ccc[nH]2)=NC1 [Ro24-7429, 3H-1,4-Benzodiazepin-2-amine, 7-chloro-N-methyl-5-(1H-pyrrol-2-yl)-]
infiltration of inflammatory cells, neutrophils and macrophages [2]: reduced infiltration
TGF-β1 and TNFα induced ACE2 protein levels [3]: significantly reduced
reduction of FURIN mRNA expression (FURIN mRNA in HMEC-Ls): 70%
α-SMA immunostaining localization ([4]; 70 mg/kg, bleomycin mice): localized only to vessels
expression of E-Cadherin, Western blot [4, 12]: preserved
expression of RUNX1, Western blot [4, 12]: reduced
expression of fibronectin, Western blot [4, 12]: reduced
RUNX1 upregulation, immunofluorescence and qRT-PCR ([4]; bleomycin-injured mice, day 14): significantly attenuated
upregulation of fibrosis markers triggered by bleomycin ([4]; compared to vehicle treated mice, day 14): blunted
effect on lung phenotype / progression of fibrosis ([5]; 17.5 mg/kg, day 14): slight effect
effect on the progression of fibrosis ([5]; 35 mg/kg, day 14): moderate but variable effect
Ashcroft fibrosis score ([5]; 70 mg/kg, day 14): significant reduction
lung structures after bleomycin instillation ([5]; 70 mg/kg, day 14, H&E and Masson's trichrome): robust preservation of lung structures
percent live cells compared to vehicle treated (A549 cells [1]): significant reduction
reduction in proliferation (A549 cells [1]; A549, 48 hours, 50 μM): 62%
reduction in proliferation (A549 cells [1]; A549, 48 hours, 200 μM): 68%
reduction in proliferation (A549 cells [1]; A549, 72 hours, 200 μM): 82%
TGF-β1-induced N-Cadherin upregulation (N-Cadherin in A549 cells): effectively prevented
reduction in proliferation ([6]; 50 μM): 30%
reduction in proliferation ([6]; 200 μM): 55%
decrease of FURIN protein levels ([7]; bleomycin mice lungs, Western blot): 70%
ACE2 staining in the lung ([7]; bleomycin mouse model, 2-week time point, immunofluorescence): markedly reduced
reduction of TNF-α-induced upregulation of RUNX1 mRNA (RUNX1 mRNA in HMEC-Ls): 50%
TGF-β1-induced N-Cadherin upregulation [8]: effectively prevented
cell death by LDH analysis (A549 cells [9]): Very low levels of cell death
cell death by LDH analysis [10]: Very low levels of cell death
antiviral activity in clinical trials [11]: no detectable antiviral activity
safety profile in clinical trials [11]: acceptable safety profile

— patent US12673063B2, “Methods and materials for treatment of fibrosis” (Massachusetts Eye and Ear Infirmary, priority 2020, dated 2026)
